Tests used:
Type in all cases: functional
Settings in all cases: read-out: ED50 (the source's name)
KB = assay: Cytotoxicity against human KB cells
A549 = assay: Cytotoxicity against human A549 cells
TE-671 = assay: Cytotoxicity against human TE671 cells
P388 = assay: Cytotoxicity against mouse P388 cells
[1] = Cytotoxicity against human RPMI cells
HCT-8 = assay: Cytotoxicity against human HCT8 cells

Measured: EC50

COC1=C[C@@H](C)[C@@H]2C[C@H]3O[C@@H](O[C@@H]4O[C@H](CO)[C@@H](O)[C@H](O)[C@H]4O)C[C@H]4C(C)=C(OC)C(=O)[C@H]([C@@]2(C)C1=O)[C@@]34C [PICRASINOSIDE B]
≤ 4 µg/mL: all assays above

COC1=C[C@@H](C)C2C[C@H]3O[C@@H](O[C@@H]4O[C@H](CO)[C@@H](O)[C@H](O)[C@H]4O)C[C@H]4[C@@H](C)[C@@H]5OCO[C@H]5[C@@H]([C@@]34C)[C@@]2(C)C1=O (stereo not given in full) [PICRASINOSIDE C]
≤ 4 µg/mL: all assays above

COC1=C[C@@H](C)[C@@H]2C[C@H]3O[C@@H](O[C@@H]4O[C@H](CO)[C@@H](O)[C@H](O)[C@H]4O)C[C@H]4[C@@H](C)[C@H](OC)[C@@H](OC(C)=O)[C@H]([C@@]2(C)C1=O)[C@@]34C [PICRASINOSIDE D]
≤ 4 µg/mL: all assays above

COC1=C[C@@H](C)[C@@H]2C[C@H]3O[C@@H](O[C@@H]4O[C@H](CO)[C@@H](O)[C@H](O)[C@H]4O)C[C@H]4[C@](C)(O)[C@H](OC)[C@@H](OC(C)=O)[C@H]([C@@]2(C)C1=O)[C@@]34C [PICRASINOSIDE E]
≤ 4 µg/mL: all assays above

COC1=C[C@@H](C)[C@@H]2C[C@H]3O[C@@H](O[C@@H]4O[C@H](CO)[C@@H](O)[C@H](O)[C@H]4O)C[C@H]4[C@](C)(O)[C@H](OC)[C@@H](O)[C@H]([C@@]2(C)C1=O)[C@@]34C [PICRASINOSIDE G]
not listed: TE-671
≤ 4 µg/mL: all other assays above

COC1=C[C@@H](C)[C@@H]2C[C@H]3O[C@@H](O[C@@H]4O[C@H](CO)[C@@H](O)[C@H](O)[C@H]4O)C[C@H]4[C@](C)(OC(C)=O)[C@@H]5OCO[C@H]5[C@H]([C@@]2(C)C1=O)[C@@]34C [PICRASINOSIDE H]
≤ 4 µg/mL: all assays above

From ChEMBL document CHEMBL1158961, “Picrasinoside H, a new quassinoid glucoside, and related compounds from the stem wood of Picrasma ailanthoides” (1991)
